Results reported in US20140377324A1, “Pharmaceutical Composition Comprising miRNA-100 And Its Use In The Modulation of Blood Vessel Growth and Endothelial Inflammation” (Universitatsklinikum Freiburg, priority 2009, published 2014).
Entries after “also recorded” stand apart in the source; their conditions may differ. {Chol} = cholesterol

Experiments:
[1] = tested on: murine hindlimb ischemia model; test: murine hindlimb ischemia model, perfusion restoration and capillary density; format: in vivo, C57/BI6J mice
Protocol: (§1) The murine hindlimb ischemia model conforms to the Guide for the Care and Use of Laboratory Animals published by the U.S. National Institutes of Health and was performed after securing appropriate institutional approval. Unilateral femoral artery occlusion was performed in C57/BI6J mice (Charles River Lab., Sulzfeld, Germany) by double ligation of the superficial femoral artery proximal to the deep femoral artery and the distal femoral artery just above the knee joint. A sham operation without arterial occlusion was performed on the contralateral leg. For molecular biology, histology and in situ hybridization, tissue was carefully dissected and snap-frozen in liquid nitrogen until further analysis. For dissection of isolated collateral arteries, the hindlimb vasculature was […] with liquid latex, to allow the identification and isolation of individual arterial vessels.
(§2) To assess whether inhibition of miR-100 can be be used to stimulate revascularization in vivo, mice were treated with a specific antagomir against miR-100 after induction of unilateral hindlimb ischemia.
In addition, two separate groups of mice were treated with daily injections of the mTOR-inhibitor rapamycin or solvent to investigate the timecourse of hindlimb perfusion restoration under conditions of endogenous miR-100 downregulation, but impaired signalling of its target gene mTOR.

[2] = tissue distribution of fluorescence-labeled antagomir; format: in vivo; settings: mice
miR-100 [3] = test: miR-100 expression in mouse tissues after antagomir treatment; format: in vivo; settings: mice, three doses of antagomir; FIG. 8
Protocol: as §1, §2

miR-100 [4] = test: miR-100 expression in endothelial cells after cytokine, inhibitor or statin exposure (stem loop Taqman PCR); format: cell-based, human; settings: for miR-100 expression: endothelial cells exposed to cytokine, TNF-α 10 ng/ml for different time points (FIG. 16A)
Source text: (§3) MicoRNA expression was validated by quantitative stem-loop PCR technology (TaqMan MicroRNA Assays, Applied Biosystems, Foster City, Calif.). The use of target-specific reverse transcription primers and TaqMan hybridization probes allows the specific detection of mature microRNAs. MicroRNA expression was normalized to the expression of the small RNAs rnu19 and rnu48.
To search for possible inducers of miR-100 downregulation in endothelial cells, several pro-angiogenic or pro-arteriogenic cytokines were screened for effects on miR-100 expression.
FIG. 16 [A]: Human endothelial cells were stimulated 10 ng/ml TNF-α for different time points. RNA was isolated and quantified using Taqman based Stem loop PCR.
FIG. 16 [B]: The NF-kappaB inhibitor PS1145 (10 μM) was added to TNF-α stimulated (10 ng/ml) human endothelial cells and the miR-100 expression level, compared to controls without PS1145, were measured using Stem loop Taqman PCR.
Human endothelial cells were stimulated with 1 μM Simvastatin for 48 h.

miR-100 [5] = test: miR-100 level by quantitative stem-loop RT-PCR after pre-miR/anti-miR transfection; format: cell-based, human; settings: 24 h following transfection; vs irrelevant-sequence controls; FIG. 2
Source text: To verify the expression of miR-100 in pure cell populations of the vascular wall, stem-loop RT-PCR was used for total RNA-isolates from cultured human endothelial cells (HUVECs) and human aortic vascular smooth muscle cells.
as §3
miR-100 was strongly expressed in both cell types. To investigate a potential role of miR-100 for angiogenesis, miR-100 was overexpressed and silenced in these cell types by transfecting specific miR-100 precursors (pre-miRs) or antisense-molecules (anti-miRs), respectively. […] Pre- and anti-miRs with an irrelevant nucleotide sequence served as negative controls. There was no significant difference in cellular viability following transfection with the different compounds.
For transfection with pre-miR microRNA precursor molecules or anti-miRmiRNA inhibitors (all Ambion), cells were cultured to 70% confluence and transfected with 8nM pre-miR-100 or anti-miR-100 oligonucleotides using Lipofectamin RNAiMax (invitrogen) according to the manufacturers instructions. […]

mTOR = mTOR expression in endothelial cells after miR-100 modulation; format: cell-based, human; settings: FIG. 5
Protocol: The binding site of miR-100 in the 3′-UTR of mTOR is shown in (FIG. 6.) In FIG. 6 the sequence designated hsa-miR-100 corresponds to SEQ ID NO:1 and the sequence having the designation mTOR 3′UTR corresponds to SEQ ID NO:7.
For transfection with pre-miR microRNA precursor molecules or anti-miRmiRNA inhibitors (all Ambion), cells were cultured to 70% confluence and transfected with 8nM pre-miR-100 or anti-miR-100 oligonucleotides using Lipofectamin RNAiMax (invitrogen) according to the manufacturers instructions. For transfection of HEK293 cells with mTOR plasmids, 2 μg DNA per 3×10E5 cells was transfected with Fugene 6 transfection reagent (Roche). For double transfection of plasmids with miRNA-precursors and inhibitors, pre- and anti-miRs were added to the plasmid/Fugene transfection mix in the same final concentrations as stated above. mTOR (Acc. NM004958) full length (SKU SC124066) and ORF-constructs (SKU RC220457) were obtained from the Origene collection (Origene, Rockville, Md.).

endothelial cells [6] = test: BrdU-Incorporation (proliferation), endothelial cells; format: cell-based, human; settings: FIG. 3
Source text: (§4) To assess whether the observed differences were secondary to effects on cellular viability, endothelial cell apoptosis and proliferation following miR-100 modulation was checked. […] DNA-synthesis rate was further analyzed by measuring BrdU-Incorporation, which correlates well with cellular proliferation.

endothelial cells [7] = test: flow cytometric quantification of Annexin V-staining (apoptosis); format: cell-based, human; settings: compared to irrelevant control sequence, FIG. 3
Source text: as §4

endothelial cells [8] = test: three-dimensional spheroid culture assay, endothelial sprouting; format: cell-based, human
HUVECs / human PBMCs = test: Leukocyte-HUVEC interaction under flow conditions (flow chamber); format: cell-based; settings: TNF-alpha 30 ng/ml for 24 h, flow 1 dyn/cm^2; FIG. 15
Protocol: HUVECs were grown to confluence, transfected with either anti-miR-100 or pre-Mir-100 oligonucelotides or scrambled controls and stimulated with TNF-alpha 30 ng/ml for 24 h. Human PBMCs (HPBMCs) were obtained from buffy coats of healthy donors by Ficoll-Hypaque density gradient centrifugation. The flow chamber was assembled and placed onto an inverted microscope stage, and freshly isolated HPBMCs (1×10^6/ml) were perfused across the endothelial monolayers. In all experiments, leukocyte interactions were determined over 105 min at 1 dyn/cm^2. Cells interacting on the surface of the endothelium were visualized and recorded using phase-contrast microscopy.
To test if this change in expression results in a functional difference in leukocyte rolling and adhesion to the endothelial surface, the attachment of isolated peripheral blood mononuclear cells (PBMC) to transfected endothelial cells was investigated under physiologic flow conditions in a flow chamber apparatus.
A physiological venous blood flow (1 dynes/cm^2) was induced by a flow chamber apparatus and the number of rolling or adherent peripheral blood mononuclear cells (PBMCs) was counted.

endothelial cells [9] = test: planar matrigel assay, endothelial network formation; format: cell-based, human

For “Antag-100: antagomir 5′-cacaaguucggaucuacggguu-3′ (SEQ ID No. 3), 2-O-methyl-RNA, phosphothioat modifications, cholesterol conjugation at 3′-end (antisense CACAAGUUCGGAUCUACGGGUU; all 2'-O-methyl, 3' {Chol}, backbone not given here; phosphorothioate modifications)”, the flow ratio ([1]; day 7 following induction of ischemia, compared to two control-antagomirs) was “higher flow ratio”, the capillary density ([1]; distal hindlimb / ischemic tissue) was “increase in capillary density” and the “perfusion restoration (blood flow restoration)” value ([1]; mice, after femoral artery occlusion, day 7, vs control-antagomirs or solvent, FIG. 9) was “significant stimulation of perfusion restoration”. For the same compound, the “tissue localisation of antagomir” value [2] was “found in the endothelial layer of blood vessels; also recorded: most prominent accumulation was found in liver and lung sections” and the “miR-100 expression in a wide selection of tissues” value (miR-100 [3]) was “strong and sustained suppression of miR-100 expression”.
In the case of “FGF2: pro-angiogenic or pro-arteriogenic cytokine”, the miR-100 expression (miR-100 [4]) is reported as “no sustained and reproducible effect”.
For TNF-alpha, the miR-100 expression (miR-100 [4]) was “significant downregulation of miR-100”, the miR-100 expression (miR-100 [4]; listed as Tumor necrosis factor (TNF)-alpha) was “sustained downregulation of miR-100” and the “dose dependency of miR-100 decrease” value (miR-100 [4]; endothelial cells, TNF-alpha concentrations tested) was “trend for a more pronounced decrease of miR-100 expression with higher doses”.
For “anti-miR-100: antisense-molecule (anti-miR miRNA inhibitor, Ambion) silencing miR-100 in cultured cells; SEQ ID No:3 designated Anti miR (antisense CACAAGUUCGGAUCUACGGGUU; listed as RNA, chemistry not given here)”, the “detectable miR-100 (relative miR-100 expression)” value (miR-100 [5]) was “significantly decreased miR-100 levels”, the “mTOR-expression on both mRNA as well as protein level” value (mTOR) was “significant upregulation” and the “endothelial cell proliferation (DNA-synthesis rate)” value (endothelial cells [6]) was “consistent stimulatory effect”. For the same compound, the endothelial cell apoptosis (endothelial cells [7]) was “no significant effect”, the “endothelial sprouting (total sprout length)” value (endothelial cells [8]) was “longer total sprout length” and the “leukocyte (PBMC) adhesion to transfected endothelial cells” value (HUVECs / human PBMCs) was “stimulatory effect”. For the same compound, the “leukocyte (PBMC) rolling on transfected endothelial cells” value (HUVECs / human PBMCs) was “stimulatory effect” and the endothelial network formation (endothelial cells [9]) was “increased endothelial network formation”.
For VEGF, the miR-100 expression (miR-100 [4]) was “no sustained and reproducible effect”.
For “TGF-beta1: pro-angiogenic or pro-arteriogenic cytokine”, the miR-100 expression (miR-100 [4]) was “no sustained and reproducible effect”.
With O=C(Nc1cc(Cl)cc2c1[nH]c1cnccc12)c1cccnc1 [PS1145, reference compound] the “TNF-alpha effect on miR-100 expression” value (miR-100 [4]; PS1145 10 μM, TNF-α 10 ng/ml, human endothelial cells, FIG. 16B) was “abrogated the TNF-alpha effect; also recorded: attenuates the regulatory effect of TNF-alpha on miR-100 levels”.
